The text below walks through data of patent US20070224154A1, “Methods of reducing skin irritation” (ACCESS BUSINESS GROUP INTERNATIONAL, LLC, priority 2006, published 2007).

The test deals with IL-1 alpha secretion by cocultures of fibroblasts and keratinocytes. Description: IL-1 alpha assay: ELISA of IL-1α secreted by fibroblast/keratinocyte cocultures exposed to a surfactant irritant with botanical added. The test is classed as cell-based, human. The following applies: hand dishwashing detergent; for Percent IL-1 α Reduction AVG: average of 1%, 0.1%, 0.01%. An excerpt:
IL-1 alpha is one cytokine often released near the beginning of the inflammation cascade, which ultimately leads to a human biological response resulting in visible and/or perceptual signs of irritation. Accordingly, by reducing the initial response to an irritant, such as a surfactant, the ultimate damaging reaction can be reduced, prevented, and/or eliminated.
The procedure for conducting IL-1 alpha assays is as follows: Cocultures of fibroblasts and keratinocytes, the primary cell types found in skin, are established using 100,000 fibroblasts and 200,000 keratinocytes per well. These types of cells are those found in the outer layers of the skin exposed to detergent during every day use. An irritant, for example the surfactant package used in a dish detergent (Example 1 below), is then applied to the coculture wells to initiate the production and secretion of pro-inflammatory cytokines by the cells. One such cytokine is human interleukin-1 alpha or IL-1α. In the body, this protein is a key mediator of the host response to infections and various inflammatory challenges. Once produced, IL-1α stimulates production of other pro-inflammatory cytokines and bioactive molecules. Together, these biological molecules send the message that something is wrong and the keratinocytes and fibroblasts need help. This is called the inflammatory response.
The amount of secreted IL-1α is directly related to the intensity of the inflammatory response. In vitro, the concentration of IL-1α secreted by the coculture cells in response to the irritant can be measured via a precise laboratory technique known as an Enzyme Linked Immuno-Sorbent Assay or ELISA. Thus, to test botanical materials for mildness, a lessening of IL-1α secretion, the mildness agents were added with the chemical irritant. When a reduction in IL-1α expression was observed, the mildness agents were successful. Theoretically, there are several mechanisms by which this could have been achieved at the cellular level. Without wishing to be bound to a particular theory or in any way limit the scope of the appended claims or their equivalents, it is presently believed that these mechanisms may include one or more of the following: the mildness agent could block the transcription of the DNA to RNA, translation of the RNA to protein, and/or release of the IL-1α from the cells. […] The mildness agent may also have stopped the cascade after the irritant works on the cell. Whatever the mechanism, the net result is the same. There is less IL-1α released by the cells which correlates to inhibition of events in the inflammatory cascade and ultimately, less inflammation.
These were prepared using a serial dilution technique: 1.0 g botanical was mixed well with 99.0 g dish detergent to give the 1.0% formulation; next, 10.0 g of the 1.0% solution was mixed well with 90.0 g of the dish detergent to give the 0.1% formulation; finally, 10.0 g of the 0.1% solution was mixed well with 90.0 g of the dish detergent to give the 0.01% formulation.

`CC(C)=CCC[C@](C)(O)[C@@H]1CC=C(C)CC1` [Alpha bisabolol, (−)-α-bisabolol]: the “Percent IL-1 α Reduction AVG” value amounted to 6.67%. In addition, the “Percent IL-1 α Reduction” value (botanical 0.01% by weight) is reported as 19.00%. Moreover, for the setting “botanical 0.1% by weight”, the “Percent IL-1 α Reduction” value worked out at 2.00%. Where the note is “botanical 1% by weight”, the “Percent IL-1 α Reduction” value is −1.00%.
The like results for `O=C(O[C@@H]1Cc2c(O)cc(O)cc2O[C@@H]1c1cc(O)c(O)c(O)c1)c1cc(O)c(O)c(O)c1` [EGCG, epigallocatechin gallate] were, in that order, 10.50%, 12.50%, 12.10% and 6.90%.
`Oc1cc(O)c2c(c1)O[C@H](c1ccc(O)c(O)c1)[C@H](O)C2` [Epicatechin]: the “Percent IL-1 α Reduction AVG” value is 29.97%. In addition, the “Percent IL-1 α Reduction” value (botanical 0.01% by weight) was 26.2%. For the same molecule, the “Percent IL-1 α Reduction” value (botanical 0.1% by weight) is given as 22.1%. The “Percent IL-1 α Reduction” value (botanical 1% by weight) was determined as 41.6%.
In the case of `CC(C)=CCCC(C)=CCCC(C)=CCO` [Farnesol], the “Percent IL-1 α Reduction AVG” value came out at 19.10%. Also, the “Percent IL-1 α Reduction” value (botanical 0.01% by weight) is on record as 14.50%. For the setting “botanical 0.1% by weight”, the “Percent IL-1 α Reduction” value was 15.50%. Further, the “Percent IL-1 α Reduction” value (botanical 1% by weight) turned out to be 27.30%.
For `CCCCCCCCCCCCCCCCCCOC(=O)[C@@]1(C)CC[C@]2(C)CC[C@]3(C)C(=CC(=O)[C@@H]4[C@@]5(C)CC[C@H](O)C(C)(C)[C@@H]5CC[C@]43C)[C@@H]2C1` [NET-STG, stearyl glycyrrhetinate], the “Percent IL-1 α Reduction AVG” value was 13.10%. In addition, the “Percent IL-1 α Reduction” value (botanical 0.01% by weight) is listed as 14.70%. For the same molecule, the “Percent IL-1 α Reduction” value (botanical 0.1% by weight) is recorded as 11.40%. Also, the “Percent IL-1 α Reduction” value (botanical 1% by weight) is listed as 13.20%.
With `O=P(O)(O)O[C@H]1[C@H](OP(=O)(O)O)[C@@H](OP(=O)(O)O)[C@H](OP(=O)(O)O)[C@@H](OP(=O)(O)O)[C@H]1OP(=O)(O)O` [PHYTIC ACID EXTREME, phytic acid], the “Percent IL-1 α Reduction AVG” value stood at 14.16%. Where the note is “botanical 0.01% by weight”, the “Percent IL-1 α Reduction” value was found to be 15.01%. Also, under “botanical 0.1% by weight”, the “Percent IL-1 α Reduction” value is 12.56%. Also, where the note is “botanical 1% by weight”, the “Percent IL-1 α Reduction” value is 14.91%.
With `O=C(/C=C/c1ccc(O)c(O)c1)O[C@H](Cc1ccc(O)c(O)c1)C(=O)O` [Rosmarinic Acid], the “Percent IL-1 α Reduction AVG” value came out at 28.80%. The “Percent IL-1 α Reduction” value (botanical 0.01% by weight) stood at 34.5%. In addition, the “Percent IL-1 α Reduction” value (botanical 0.1% by weight) was found to be 31.8%. Moreover, under “botanical 1% by weight”, the “Percent IL-1 α Reduction” value is 20.1%.
The like results for `O=C1O[C@H]([C@@H](O)CO)C([O-])=C1OP(=O)([O-])[O-].O=C1O[C@H]([C@@H](O)CO)C([O-])=C1OP(=O)([O-])[O-].[Mg+2].[Mg+2].[Mg+2]` [VC-PMG, Magnesium Ascorbyl Phosphate] were, in that order, 21.93%, 29.70%, 23.80% and 12.30%.
In the same order, the values of `O=C1O[C@H]([C@@H](O)CO)C(O)=C1O` [Vitamin C] are 7.33%, 10.30%, 8.50% and 3.20%.
`CC(=O)Oc1c(C)c(C)c2c(c1C)CCC(C)(CCC[C@H](C)CCC[C@H](C)CCCC(C)C)O2` (stereo partly shown) [Vitamin E acetate]: the “Percent IL-1 α Reduction AVG” value is given as 26.73%. Also, under “botanical 0.01% by weight”, the “Percent IL-1 α Reduction” value is 25.80%. Where the note is “botanical 0.1% by weight”, the “Percent IL-1 α Reduction” value stood at 27.50%. Moreover, the “Percent IL-1 α Reduction” value (botanical 1% by weight) is 26.90%.
Turning to Catechin, the “Percent IL-1 α Reduction AVG” value was 17.43%. The “Percent IL-1 α Reduction” value (botanical 0.01% by weight) was 19.50%. Besides, under “botanical 0.1% by weight”, the “Percent IL-1 α Reduction” value is 24.90%. Further, the “Percent IL-1 α Reduction” value (botanical 1% by weight) is reported as 7.90%.
As to Ceramide, the “Percent IL-1 α Reduction AVG” value is listed as 7.73%. The “Percent IL-1 α Reduction” value (botanical 0.01% by weight) is −0.60%. For the same molecule, the “Percent IL-1 α Reduction” value (botanical 0.1% by weight) is given as 14.70%. Besides, the “Percent IL-1 α Reduction” value (botanical 1% by weight) turned out to be 9.10%.
Regarding Dimethiconol Panthenol [D.S.H. C N], the “Percent IL-1 α Reduction AVG” value stood at 19.31%. In addition, the “Percent IL-1 α Reduction” value (botanical 0.01% by weight) stood at 22.25%. For the setting “botanical 0.1% by weight”, the “Percent IL-1 α Reduction” value was 16.43%. Also, the “Percent IL-1 α Reduction” value (botanical 1% by weight) came out at 19.24%.
The like results for “Dimethylsilanol Hyaluronate [AMINO DL-30]” were, in that order, 12.07%, 21.81%, 7.18% and 7.22%.
Consider Vitamin B12, for which the “Percent IL-1 α Reduction AVG” value is 9.17%. In addition, the “Percent IL-1 α Reduction” value (botanical 0.01% by weight) was 17.70%. For the same molecule, the “Percent IL-1 α Reduction” value (botanical 0.1% by weight) is −3.20%. For the same molecule, the “Percent IL-1 α Reduction” value (botanical 1% by weight) is given as 13.00%.
In the same order, the values of glutaurylamidoethyl indole [GLISTIN] are 22.63%, 18.50%, 31.80% and 17.60%.
